Measurements taken from patent publication US5192799A, “Coumaran group containing amine compounds and their acid addition salts and quaternary ammonium salts and the use thereof as anti arrhythmic agents and as psychotropic agents” (Mitsui Petrochemical Industries, Ltd., priority 1987, dated 1993).

Columns and labels:
[1] = system: mice; test: in vivo; details: p.o., 24 hours after administration, male ddY mice; 1440 min
Procedure: (§1) By using male ddY-strain 5-week old mice (3 to 4 per group), the compounds of general formula (1) were each administered orally or intraperitoneally as a solution in saline or as a suspension in methyl cellulose, and 24 hours after the administration, the toxicity of the compounds was evaluated.

[2] = system: right ventricle (effective refractory period); test: Activity on ERP of the right ventricle; assay type: in vivo, adult mongrel dog; details: Canis lupus familiaris, iv, ERP before drug = 100%, read-out: ERP % (ERP prolonging activity)
Summary of the method: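 Anaesthetized open-chest mongrel dogs, right ventricle paced at 400 msec interval (4 msec, twice diastolic threshold) after alcohol ablation of sinus pacemaker. ERP defined by loss of response to first stimulus of a 10-stimulus train; drug given intravenously or intraduodenally, ERP expressed as % of pre-dose.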

[3] = system: atrial fibrillation; test: Atrial fibrillation model; assay type: in vivo, mongrel dog; details: dose of 0.3 to 3 mg/kg or 1 to 10 mg/kg
From the text: Furthermore, the anaethetized dog was cut open at the chest. Bipolar electrodes were sutured to the right atrial surface, and stimulation electrodes were attached to the vagus nerves at both sides of the cervical region. Atrial fibrillation was induced by the method of Goldberger et al. A. L. Goldberger et al.: […] Further, the anaethetized dog was cut open at the chest. Left anterior descending coronary artery was ligated, and ninety minutes later, reperfused to prepare a myocardial infarction which was liable to develop tachycardia. At that time, a bipolar plunge electrode was placed in the interventricular septum near the ligated site. Several days after the operation, programmed electrical stimulation was applied to induce tachycardia. The effect of the drug to cause disappear of tachycardia was examined. In an anaethetized and open-chested mongrel dog, bipolar electrodes (silver and silver-silver chloride electrodes) were sutured respectively to the right atrium for stimulation and recording. The vagus nerves on both sides of the cervical region were isolated and cut, and stimulation electrodes were attached to the peripheral end. The atrial fibrillation was induced in accordance with the method of Goldberger et al. After cardiac arrest induced by stimulating the vagus nerves, electrical stimulation was applied to the right atria at a high frequency.

[4] = system: Purkinje fiber; test: Effect on APD (APD75, field-stimulated right ventricular free wall); assay type: cell-based, adult mongrel dog; details: Canis lupus familiaris, purkinje, 20 min, 20 minutes incubation, 37° C., 1 Hz, control before drug = 100%, read-out: APD75 % (percent change in APD75)
Summary of the method: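 Right ventricular free wall from pentobarbital-anaesthetized adult mongrel dog, held in Tyrode's solution at 37° C. with 1 Hz field stimulation. Purkinje fiber action potentials recorded by intracellular glass microelectrodes; APD75 measured after 20 minutes drug perfusion, expressed as percent change versus pre-drug control (100%).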

[5] = target: T1, serotonine 2 receptor (Rattus norvegicus, UniProt P14842); test: [3H]ketanserin binding assay (affinity for serotonine 2 receptor); set-up: species or system Wistar male rat; details: rat frontal cortex, 1 nM [3H] ketanserin, 37° C., 10 minutes
T1 construct: frontal cortex fraction prepared from the brain of a Wistar male rat; from tissue; host or cells: rat brain frontal cortex (Wistar, male), membrane fraction
T1 sequence (P14842 whole entry): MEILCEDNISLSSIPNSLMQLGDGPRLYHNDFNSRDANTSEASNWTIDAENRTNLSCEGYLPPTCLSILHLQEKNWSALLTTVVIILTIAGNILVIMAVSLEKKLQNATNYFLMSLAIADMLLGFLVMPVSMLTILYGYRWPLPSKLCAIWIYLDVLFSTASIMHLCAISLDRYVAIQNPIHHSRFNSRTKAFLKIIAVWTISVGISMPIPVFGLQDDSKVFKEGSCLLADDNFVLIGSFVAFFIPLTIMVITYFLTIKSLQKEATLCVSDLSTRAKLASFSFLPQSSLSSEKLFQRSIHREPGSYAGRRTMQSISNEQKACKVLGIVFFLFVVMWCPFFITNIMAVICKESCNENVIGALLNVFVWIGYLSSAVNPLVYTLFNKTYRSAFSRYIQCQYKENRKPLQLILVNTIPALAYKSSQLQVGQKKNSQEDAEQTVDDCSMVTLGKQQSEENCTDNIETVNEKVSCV
Procedure: (§2) Striatal membranes fractions were prepared from a rat brain, and the affinity of the compounds of this invention on dopamine 2 receptors was determined by using [^3 H] spiperone assay from membranes fractions as an index. Moreover, frontal cortex membranes were prepared from a rat brain, and the affinity of the test drugs on serotonine 2 receptor was determined by using [^3 H] ketenserin binding assay. It was shown that the compounds of general formula (1) of the invention have marked anti-dopamine activity and anti-serotonine activity.
[^3 H] ketanserin binding assay
The affinity of the compound of the invention was determined on the basis of the ability to substitute [^3 H] ketanserin from a frontal cortex fraction prepared from the brain of a Wistar male rat.
(§3) The rat was decapitated, and the brain was obtained. The frontal cortex was homogenized in 40 volumes of 50 mM Tris-HCl buffer (pH 7.6), and then centrifuged. The pellets were again homogenized in 100 volumes of the same buffer, and used in a binding test. The binding test was conducted by the following procedure.
(§4) The frontal cortex (original tissue weight 1 mg/ml), 100 microliters of a test drug and 1 nM of [^3 H] ketanserin were incubated at 37° C. for 10 minutes in 50 mM Tris-HCl buffer (pH 7.6). Then, the reaction mixture was suction-filtered through a glass fiber filter (Watmann GF/B) and washed with a buffer three times.
(§5) The filter was put in a scintillation cocktail (ACSII, Amersham Co.), and after mixing, left to stand overnight. The radioactivity held on the filter was measured by a liquid scintillation counter. The nonspecific binding was measured in the presence of 1 μM of methysergide. The concentration of the test drug which inhibited 50% of a specific binding was determined from the graph and defined as IC5. Ki was calculated from the following equation. [formula]

[6] = in vivo; details: mouse, in vivo, po
Procedure: as §1

[7] = target: T2, dopamine 2 receptor (Rattus norvegicus, UniProt P61169); test: [3H]spiperone binding assay (affinity for dopamine 2 receptor); set-up: species or system Wistar-strain male rat; details: rat striatal membranes, 0.5 nM [3H] spiperone, 37° C., 10 minutes
T2 construct: membrane fractions prepared from the brain a Wistarstrain male rat; from tissue; host or cells: rat brain striatum (Wistar, male), membrane fraction
T2 sequence (P61169 whole entry): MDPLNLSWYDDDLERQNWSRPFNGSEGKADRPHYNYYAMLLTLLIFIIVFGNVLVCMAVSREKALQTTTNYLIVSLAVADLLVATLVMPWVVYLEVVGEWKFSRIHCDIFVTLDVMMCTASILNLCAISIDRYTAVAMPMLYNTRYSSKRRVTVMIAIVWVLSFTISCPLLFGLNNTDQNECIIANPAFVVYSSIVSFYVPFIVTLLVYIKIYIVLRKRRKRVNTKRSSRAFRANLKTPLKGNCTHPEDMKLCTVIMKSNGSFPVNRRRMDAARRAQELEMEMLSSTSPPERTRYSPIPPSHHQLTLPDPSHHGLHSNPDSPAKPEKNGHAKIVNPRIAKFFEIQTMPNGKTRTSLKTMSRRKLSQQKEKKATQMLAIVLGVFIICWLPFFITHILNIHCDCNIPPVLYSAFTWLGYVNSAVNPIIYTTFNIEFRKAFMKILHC
Procedure: as §2
[^3 H]spiperone binding assay
The affinity of the compounds of this invention to the dopamine 2 receptor was determined on the basis of the ability to substitute [^3 H] spiperone from stratal membrane fractions prepared from the brain a Wistarstrain male rat.
as §3, with “striatum” for “frontal cortex”, “50” for “100”
as §4, with “The stria” for “The frontal cortex”, “weight 20” for “weight 1”, “and 0.5” for “and 1”, “H] spiperone” for “H] ketanserin”
as §5, with “(+) butaclamol.” for “methysergide.”, “IC50.” for “IC5.”

[8] = system: Apomorphine-induced climbing of mice; test: Apomorphine-induced climbing (anti-DA activity); assay type: in vivo, ddY-strain male mice
From the text: (§6) The effects of the compounds of general formula (1) on the apomorphine-induced climbing behavior of mice (i.e. anti-dopamine activity) and the effects of the test drugs of the invention on the quipazine-induced head twitching of mice (i.e. anti-serotonine activity) were also examined. It was made clear that the compounds of this invention represented by general formula (1) have marked anti-dopamine activity and anti-serotonine activity both in vivo and in vitro, and have potentiality as an anti-psychotic agent, an anti-depressant, an antianxiety agent, a sedative or as an anti-dementia agent.
(§7) By using 5 week old ddY-strain male mice (10 per group), the anti-dopamine (anti-DA hereinafter) and anti-serotonine (anti-5-HT hereinafter) activities were examined by the following procedures. All does of test drugs were adjusted to 1 mg/ml. They were each suspended in 0.5% carboxymethyl cellulose (CMC)/saline so that their volume administered was 0.1 ml/10 g. The suspension was administered intraperitoneally.
1. Effect of apomorphine on the climbing behavior (anti-DA activity):
Apomorphine (3 mg/kg) was subcutaneously administered 30 minutes after the intraperitoneal administration of each test drug, and 20 minutes later, the climbing time of each mouse was measured.

[9] = system: Quipazine-induced head twitching of mice; test: Quipazine-induced head twitching (anti-5-HT activity); assay type: in vivo, ddY-strain male mice
From the text: as §6, §7
2. Effect of quipazine on the head twitch (anti-5-HT activity):
Quipazine (3 mg/kg) was administered intraperitoneally 30 minutes after the intraperitoneal administration of each test drug. After the lapse of 10 minutes, 20 minutes and 30 minutes from then, the number of head twitchings of each mouse which occurred for 2 minutes was counted.

Structure (SMILES)	LD50 p.o. [1]	change in vivo at 0.3 mg/kg ([2]; 0.3 mg/kg i.v.) [%]	change in vivo at 1 mg/kg ([2]; 1 mg/kg i.v.) [%]	disappearance of atrial fibrillation [3]	activation at 1 µg/mL ([4]; dose 1 μg/ml) [%]	activation at 3 µg/mL ([4]; dose 3 μg/ml) [%]	activation at 10 µg/mL ([4]; dose 10 μg/ml) [%]	Ki [5] [nM]	LD50 at 24 h [6] [mg/kg]	Ki [7] [nM]	Percent inhibition of apomorphine-induced climbing ([8]; 1 mg/kg i.p.) [%]	Apomorphine-induced climbing (mean ± S.E.) ([8]; 1 mg/kg i.p., control 72.9 ± 8.5, **p < 0.01) [sec/2 min.]	effect on apomorphine-induced climbing behavior / anti-dopamine activity (in words) ([8]; in vivo, mice)	Percent inhibition of quipazine-induced head twitching ([9]; 1 mg/kg i.p.) [%]	Quipazine-induced head twitching ([9]; 1 mg/kg i.p., control 6.7 ± 0.8, **p < 0.05, ***p < 0.001) [number/2 min.]	effect on quipazine-induced head twitching / anti-serotonine activity (in words) ([9]; in vivo, mice)
O=C1COc2cc(OCCCN3CCC(c4ccccc4)CC3)ccc21 [Compound 1139]	> 1,000 mg/kg	5	11	could cause disappearance fibrillation	33	55	65									
O=C1COc2cc(OCCCN3CCC(c4ccccc4)CC3)ccc21 [Compound 1140]	> 300 mg/kg															
O=C1COc2cc(OCCCN3CCC(C(=O)c4ccc(F)cc4)CC3)ccc21 [Compound 1236]								9.1	< 300	122	56	32.0 ± 8.6	significantly inhibited the apomorphine-induced climbing behavior	99	0.1 ± 0.1	significantly inhibited the apomorphine-induced climbing behavior and quipazine-induced head twitching
